“Also recorded” adds a separate entry of the source. Where two headings read alike, the source gives them in different places. Values belong to the molecule of their own block, whether it stands above or below them.
Legend:
SPOP = target: T1, SPOP (Homo sapiens, UniProt O43791); assay: SPOP fluorescence polarization (FP) competition assay with FITC-puc_SBC1; assay type: binding
T1 construct: purchased Abcam
Experimental: The enzymatic activity of SPOP was determined by a previously described fluorescence polarization (FP) assay ([Guo et al., 2016]). FITC-labeled peptide substrate puc_SBC1 (FITC-puc_SBC1, FITC-[…]) was purchased (GL Biochem Ltd, Shanghai). Serial dilutions of competitors for SPOP23-337 were prepared from the 20 mM DMSO stocks. The diluted compound was added to the reaction mixture in 100 μl of HEPES (25 mM, pH 7.5) containing 10 μM SPOP and 50 nM FITC-puc_SBC1. After incubation for 1 h at 4°C, FP was measured on a microplate reader (Perkin Elemer) using the wavelengths of 480 nm for excitation and 535 nm for emission, respectively.
(§1) All experiments were performed in triplicate. Competition binding data were analyzed using GraphPad Prism 6.0 software (GraphPad Software Inc, San Diego, CA) and the inhibition constants (IC50) were calculated by nonlinear curve fitting.

HDAC1 = target: T2, HDAC1 (Homo sapiens, UniProt Q13547); assay: In vitro HDAC1 inhibition, fluorescent substrate Boc-Lys(acetyl)-AMC; assay type: biochemical
T2 construct: purchased Abcam
T2 sequence (Q13547 whole entry): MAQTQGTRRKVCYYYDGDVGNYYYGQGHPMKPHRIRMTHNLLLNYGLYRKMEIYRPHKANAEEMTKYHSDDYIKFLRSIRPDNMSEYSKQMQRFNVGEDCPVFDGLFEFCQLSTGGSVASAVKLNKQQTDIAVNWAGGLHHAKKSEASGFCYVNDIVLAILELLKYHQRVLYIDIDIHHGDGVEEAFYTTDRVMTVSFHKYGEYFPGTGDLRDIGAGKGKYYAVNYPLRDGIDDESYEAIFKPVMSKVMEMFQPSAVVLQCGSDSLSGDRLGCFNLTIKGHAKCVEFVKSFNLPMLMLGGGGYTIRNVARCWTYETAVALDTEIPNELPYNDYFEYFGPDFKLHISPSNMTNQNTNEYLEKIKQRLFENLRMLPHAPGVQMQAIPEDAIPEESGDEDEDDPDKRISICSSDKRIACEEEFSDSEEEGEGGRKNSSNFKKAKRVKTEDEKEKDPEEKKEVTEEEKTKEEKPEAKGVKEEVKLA
Experimental: In the 96-well plates, different concentrations of the tested compound (50 μL) were added to 10 μl of HDAC1 enzyme solution. After incubation at 37°C for 5 min, 40 μl of the fluorescent substrate Boc-Lys (acetyl)-AMC was then added to the mixture. The plates were incubated at 37°C for 0.5 h, and the developer (100 μl) containing trypsin and TSA was added to the mixture. Finally, the fluorescence intensity at wavelengths of 390 nm and 460 nm was measured 20 min later by a microplate reader (Perkin Elemer).
as §1

769-P cell = assay: MTT cell growth inhibition, 769-P; assay type: cell-based; conditions: 72 h, read-out: 769-P cell proliferation IC50
Experimental: (§2) According to the previously reported method ([Namwan et al., 2022]; [Zhao et al., 2023]), at a concentration of 5 × 10^4/ml, cell lines were planted in 96-well plates and cultivated for an entire night. The cells were incubated at 37 °C for 72 h while being exposed to various inhibitor concentrations. And then, MTT stock solution (5 mg/ml) was added to each well and incubated for an additional 4 h. Dimethyl sulfoxide (DMSO) was used to dissolve the insoluble crystals, and a microplate reader was used to detect absorbance at 570 nm. Survival ratio (%) was calculated using the following equation: survival ratio (%) = (A treatment /A control ) × 100%. Data were analyzed using the analysis software GraphPad Prism 6.0 software (GraphPad Software Inc., San Diego, CA), and the half-maximal inhibitory concentration (IC50) values were calculated by the dose-response curve visualized using nonlinear regression (curve fit).

OS-RC-2 cell = assay: MTT cell growth inhibition, OS-RC-2; assay type: cell-based; conditions: read-out: OS-RC-2 cell proliferation IC50
Experimental: as §2

[1] = system: SPOP and HDAC levels in HCT-116 cells; assay: Western blot of SPOP and HDAC levels in HCT-116 cells; assay type: cell-based; conditions: HCT-116 cells, 0, 0.5 and 2 μM, 72 h
Experimental: (§3) The tumor cells (10^6 cells/well) were seeded onto 6-well plates and allowed to culture for 24 h. The cells were incubated with various concentrations (0, 0.5 and 2 μM) of HS-2 at 37°C for 72 h. Tumor cells were washed and lysed with RIPA. Protein samples were detected by western blot as described previously ([Zheng et al., 2021]).

[2] = system: SPOP and HDAC levels in A498 cells; assay: Western blot of SPOP and HDAC levels in A498 cells; assay type: cell-based; conditions: A498 cells, 0, 0.5 and 2 μM, 72 h
Experimental: as §3

HCT-116 tumor cells = assay: In vivo anticancer activity, HCT-116 xenograft; conditions: six times; for tumor volume versus control group: HCT-116 xenograft, nude mice
Experimental: According to the previously reported in vivo inhibition method, we injected HCT-116 tumor cells (200 μl, 1 × 10^7 cells) into the right subcutaneous space of 6-week-old BALB/c nude mice (Experimental Animal Center of Yangzhou University (Yangzhou, China) ([Zheng et al., 2021]). All experimental protocols were approved by the Animal Ethics Committee of China Pharmaceutical University. When the tumors grew to 90–120 mm^3, the mice were randomly divided into three groups (five mice per group) and intraperitoneally administered with vehicle (PBS buffer pH 7.4, volume capacity: 0.2 ml), compound HS-2 (volume capacity: 0.2 ml in PBS vehicle, 5 mg/kg), and compound HS-2 (volume capacity: 0.2 ml in PBS vehicle, 10 mg/kg) every 3 days for a total of six times. Tumor volume and weight were measured every 3 days. Tumor volume was calculated using the formula (c × c × d)/2 (c, the smallest diameter; d, the largest diameter).

[3] = FP, 10 μM SPOP, 50 nM FITC-puc_SBC1, triplicate
[4] = 5 and 10 mg/kg intraperitoneally every 3 days

T1 sequence (O43791 23-337): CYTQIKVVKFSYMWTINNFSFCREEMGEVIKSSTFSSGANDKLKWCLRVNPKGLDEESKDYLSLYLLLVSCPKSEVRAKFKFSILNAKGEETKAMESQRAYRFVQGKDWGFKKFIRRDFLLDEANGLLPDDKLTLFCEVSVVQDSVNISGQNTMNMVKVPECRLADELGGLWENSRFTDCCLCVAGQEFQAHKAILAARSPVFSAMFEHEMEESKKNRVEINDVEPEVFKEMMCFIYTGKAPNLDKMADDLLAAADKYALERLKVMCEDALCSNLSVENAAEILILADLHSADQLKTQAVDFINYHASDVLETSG

SMILES: O=C(CCCCCCC(=O)Nc1ccccc1)NO [Vorinostat, reference compound]
SPOP (IC50, μM) (SPOP; [3]): without affecting SPOP activity; also recorded: no binding

IC50 (HDAC1; triplicate): 0.0137 ± 0.0011 µM
IC50 (SPOP; [3]): 18.3 ± 2.5 µM
SMILES: Cc1cccn2c(=O)c3cc(ONCCCCCC(=O)NO)c(=N)n(CCc4cccs4)c3nc12 [HS-1]

SMILES: Cc1cccn2c(=O)c3cc(ONCCCCCC(=O)NO)c(=N)n(CCc4ccc(C(F)(F)F)cc4)c3nc12 [HS-2]
IC50 (HDAC1; triplicate): 0.0076 ± 0.0004 µM
HDAC1 inhibitory effect relative to Vorinostat (IC50 ratio) (HDAC1; versus positive control Vorinostat): about 1.1 times
IC50 (SPOP; [3]): 9.1 ± 0.7 µM
SPOP inhibitory effect relative to SPOP-IN-6b (IC50 ratio) (SPOP; versus positive control SPOP-IN-6b): ~3.8 times
IC50 (769-P cell): 5.2 ± 1.1 µM
IC50 (769-P cell; Homo sapiens, 769-P): < 10 µM
IC50 (OS-RC-2 cell; 72 h): 9.3 ± 1.7 µM
IC50 (OS-RC-2 cell; Homo sapiens, OS-RC-2, 72 h): < 10 µM
HDAC level (western blot) [1]: reduced
SPOP level (western blot) [1]: reduced
HDAC level (western blot) [2]: reduced
SPOP level (western blot) [2]: reduced
tumor volume versus control group (HCT-116 tumor cells; 5 mg/kg intraperitoneally every 3 days): significantly less tumor volume than the control group
tumor volume versus control group (HCT-116 tumor cells; 10 mg/kg intraperitoneally every 3 days): significantly less tumor volume than the control group
body weight of mice (HCT-116 tumor cells; [4]): no significant differences
toxicity in vivo (HCT-116 tumor cells; [4]): no significant toxicity

IC50 (HDAC1; triplicate): 0.0184 ± 0.0019 µM
IC50 (SPOP; [3]): 23.2 ± 2.7 µM
SMILES: CCN(CC)CCn1c(=N)c(ONCCCCCC(=O)NO)cc2c(=O)n3cccc(C)c3nc21 [HS-4]

IC50 (HDAC1; triplicate): 0.0115 ± 0.0013 µM
IC50 (SPOP; [3]): 14.9 ± 1.2 µM
SMILES: Cc1cccn2c(=O)c3cc(ONCCCCCC(=O)NO)c(=N)n(CCc4ccc(Cl)c(F)c4)c3nc12 [HS-3]

IC50 (SPOP; [3]): 34.6 ± 3.1 µM
SMILES: Cc1cccn2c(=O)c3cc(C(=O)NCCCN4CCOCC4)c(=N)n(CCc4ccccc4)c3nc12 [SPOP-IN-6b, reference compound]
HDAC1 (IC50, nM) (HDAC1; triplicate): without an inhibitory effect on HDAC1; also recorded: no binding
